Test results reported in PubChem BioAssay (NCI).
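Dose response: 5 concentrations. Exposure: 48 h. Format: 96-well plates. Endpoint: linear interpolation; highest concentration if not reached. TGI: total growth inhibition.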

The molecules below were run on OVCAR-5 ovarian (assay: NCI tumour cell line growth inhibition, 48 h).

`COc1ccc(-n2cnc3c(N)nc(N)nc32)cc1` and `COc1ccc(N2C(=O)C3c4[nH]c5cccc(Cl)c5c4C4CCC(C(C)(C)C)CC4C3C2=O)cc1` (stereo not drawn) cannot be ordered by TGI: over 100 µM for the first, over 100 µM for the second.

First: COc1ccc2c(c1)/C(=C\c1c(-c3ccccc3)nc3n1CCS3)C(=O)N2
Second: C[C@@H]1OC(=O)C[C@H]2CC(=O)N(CCC3CN(C(=O)c4ccccc4)c4ccccc43)C[C@@H]21 (stereo partly drawn)
The TGI of the first is lower: 51.8 µM for the first, over 100 µM for the second.

In the case of `O=c1cc(N2CCOCC2)[nH]c(=O)n1-c1cccc(Cl)c1`, the TGI is reported as over 100 µM.

These molecules were tested on MCF7 breast (assay: NCI tumour cell line growth inhibition, 48 h).

`COc1ccc(-n2cnc3c(N)nc(N)nc32)cc1` and `COc1ccc(N2C(=O)C3c4[nH]c5cccc(Cl)c5c4C4CCC(C(C)(C)C)CC4C3C2=O)cc1` (stereo not drawn) cannot be ordered by TGI: over 100 µM for the first, over 100 µM for the second.

First: COc1ccc2c(c1)/C(=C\c1c(-c3ccccc3)nc3n1CCS3)C(=O)N2
Second: C[C@@H]1OC(=O)C[C@H]2CC(=O)N(CCC3CN(C(=O)c4ccccc4)c4ccccc43)C[C@@H]21 (stereo partly drawn)
The TGI of the first is lower: 29 µM for the first, over 100 µM for the second.

For `O=c1cc(N2CCOCC2)[nH]c(=O)n1-c1cccc(Cl)c1`, the TGI was over 100 µM.

These molecules were tested on UACC-257 melanoma (assay: NCI tumour cell line growth inhibition, 48 h).

`COc1ccc(-n2cnc3c(N)nc(N)nc32)cc1` and `COc1ccc(N2C(=O)C3c4[nH]c5cccc(Cl)c5c4C4CCC(C(C)(C)C)CC4C3C2=O)cc1` (stereo not drawn) cannot be ordered by TGI: over 100 µM for the first, over 100 µM for the second.

Going from `COc1ccc2c(c1)/C(=C\c1c(-c3ccccc3)nc3n1CCS3)C(=O)N2` to `C[C@@H]1OC(=O)C[C@H]2CC(=O)N(CCC3CN(C(=O)c4ccccc4)c4ccccc43)C[C@@H]21` (stereo partly drawn), the TGI rises from 27.4 µM to over 100 µM.

`O=c1cc(N2CCOCC2)[nH]c(=O)n1-c1cccc(Cl)c1` showed a TGI of over 100 µM.

The molecules below were run on CAKI-1 renal (assay: NCI tumour cell line growth inhibition, 48 h).

`COc1ccc(-n2cnc3c(N)nc(N)nc32)cc1` and `COc1ccc(N2C(=O)C3c4[nH]c5cccc(Cl)c5c4C4CCC(C(C)(C)C)CC4C3C2=O)cc1` (stereo not drawn) cannot be ordered by TGI: over 100 µM for the first, over 100 µM for the second.

Going from `COc1ccc2c(c1)/C(=C\c1c(-c3ccccc3)nc3n1CCS3)C(=O)N2` to `C[C@@H]1OC(=O)C[C@H]2CC(=O)N(CCC3CN(C(=O)c4ccccc4)c4ccccc43)C[C@@H]21` (stereo partly drawn), the TGI rises from 37.4 µM to over 100 µM.

`O=c1cc(N2CCOCC2)[nH]c(=O)n1-c1cccc(Cl)c1` gave a TGI of over 100 µM.

What follows are molecules tested on NCI/ADR-RES ovarian (assay: NCI tumour cell line growth inhibition, 48 h).

`COc1ccc(-n2cnc3c(N)nc(N)nc32)cc1` and `COc1ccc(N2C(=O)C3c4[nH]c5cccc(Cl)c5c4C4CCC(C(C)(C)C)CC4C3C2=O)cc1` (stereo not drawn) cannot be ordered by TGI: over 100 µM for the first, over 100 µM for the second.

First: COc1ccc2c(c1)/C(=C\c1c(-c3ccccc3)nc3n1CCS3)C(=O)N2
Second: C[C@@H]1OC(=O)C[C@H]2CC(=O)N(CCC3CN(C(=O)c4ccccc4)c4ccccc43)C[C@@H]21 (stereo partly drawn)
The TGI of the first is lower: 35.4 µM for the first, over 100 µM for the second.

Work on `O=c1cc(N2CCOCC2)[nH]c(=O)n1-c1cccc(Cl)c1` yielded a TGI of over 100 µM.

Each molecule was assayed on SNB-75 CNS (assay: NCI tumour cell line growth inhibition, 48 h).

`COc1ccc(-n2cnc3c(N)nc(N)nc32)cc1` and `COc1ccc(N2C(=O)C3c4[nH]c5cccc(Cl)c5c4C4CCC(C(C)(C)C)CC4C3C2=O)cc1` (stereo not drawn) are within 1.5-fold of each other in TGI: 77.9 µM for the first, 53.2 µM for the second.

Compared with `COc1ccc2c(c1)/C(=C\c1c(-c3ccccc3)nc3n1CCS3)C(=O)N2`, `C[C@@H]1OC(=O)C[C@H]2CC(=O)N(CCC3CN(C(=O)c4ccccc4)c4ccccc43)C[C@@H]21` (stereo partly drawn) is higher in TGI: 36.8 µM for the first, over 100 µM for the second.

`O=c1cc(N2CCOCC2)[nH]c(=O)n1-c1cccc(Cl)c1` was tested, and the TGI was over 100 µM.

These molecules were tested on PC-3 prostate (assay: NCI tumour cell line growth inhibition, 48 h).

`COc1ccc(-n2cnc3c(N)nc(N)nc32)cc1` and `COc1ccc(N2C(=O)C3c4[nH]c5cccc(Cl)c5c4C4CCC(C(C)(C)C)CC4C3C2=O)cc1` (stereo not drawn) cannot be ordered by TGI: over 100 µM for the first, over 100 µM for the second.

Compared with `COc1ccc2c(c1)/C(=C\c1c(-c3ccccc3)nc3n1CCS3)C(=O)N2`, `C[C@@H]1OC(=O)C[C@H]2CC(=O)N(CCC3CN(C(=O)c4ccccc4)c4ccccc43)C[C@@H]21` (stereo partly drawn) is higher in TGI: 17.2 µM for the first, over 100 µM for the second.

`O=c1cc(N2CCOCC2)[nH]c(=O)n1-c1cccc(Cl)c1` showed a TGI of over 100 µM.

What follows are molecules tested on MDA-MB-435 (assay: NCI tumour cell line growth inhibition, 48 h).

`COc1ccc(-n2cnc3c(N)nc(N)nc32)cc1` and `COc1ccc(N2C(=O)C3c4[nH]c5cccc(Cl)c5c4C4CCC(C(C)(C)C)CC4C3C2=O)cc1` (stereo not drawn) cannot be ordered by TGI: over 100 µM for the first, over 100 µM for the second.

First: COc1ccc2c(c1)/C(=C\c1c(-c3ccccc3)nc3n1CCS3)C(=O)N2
Second: C[C@@H]1OC(=O)C[C@H]2CC(=O)N(CCC3CN(C(=O)c4ccccc4)c4ccccc43)C[C@@H]21 (stereo partly drawn)
The TGI of the first is lower: 7.19 µM for the first, over 100 µM for the second.

For `O=c1cc(N2CCOCC2)[nH]c(=O)n1-c1cccc(Cl)c1`, the TGI was over 100 µM.

The molecules below were run on HOP-62 NSCLC (assay: NCI tumour cell line growth inhibition, 48 h).

Compared with `COc1ccc(-n2cnc3c(N)nc(N)nc32)cc1`, `COc1ccc(N2C(=O)C3c4[nH]c5cccc(Cl)c5c4C4CCC(C(C)(C)C)CC4C3C2=O)cc1` (stereo not drawn) is lower in TGI: over 100 µM for the first, 53.5 µM for the second.

First: COc1ccc2c(c1)/C(=C\c1c(-c3ccccc3)nc3n1CCS3)C(=O)N2
Second: C[C@@H]1OC(=O)C[C@H]2CC(=O)N(CCC3CN(C(=O)c4ccccc4)c4ccccc43)C[C@@H]21 (stereo partly drawn)
The TGI of the first is lower: 27.6 µM for the first, over 100 µM for the second.

Work on `O=c1cc(N2CCOCC2)[nH]c(=O)n1-c1cccc(Cl)c1` yielded a TGI of over 100 µM.

Each molecule was assayed on HCT-116 colon (assay: NCI tumour cell line growth inhibition, 48 h).

`COc1ccc(-n2cnc3c(N)nc(N)nc32)cc1` and `COc1ccc(N2C(=O)C3c4[nH]c5cccc(Cl)c5c4C4CCC(C(C)(C)C)CC4C3C2=O)cc1` (stereo not drawn) cannot be ordered by TGI: over 100 µM for the first, over 100 µM for the second.

First: COc1ccc2c(c1)/C(=C\c1c(-c3ccccc3)nc3n1CCS3)C(=O)N2
Second: C[C@@H]1OC(=O)C[C@H]2CC(=O)N(CCC3CN(C(=O)c4ccccc4)c4ccccc43)C[C@@H]21 (stereo partly drawn)
The TGI of the first is lower: 18.2 µM for the first, over 100 µM for the second.

Molecule `O=c1cc(N2CCOCC2)[nH]c(=O)n1-c1cccc(Cl)c1` has a TGI of over 100 µM.

The molecules below were run on SK-MEL-5 melanoma (assay: NCI tumour cell line growth inhibition, 48 h).

`COc1ccc(-n2cnc3c(N)nc(N)nc32)cc1` and `COc1ccc(N2C(=O)C3c4[nH]c5cccc(Cl)c5c4C4CCC(C(C)(C)C)CC4C3C2=O)cc1` (stereo not drawn) cannot be ordered by TGI: over 100 µM for the first, over 100 µM for the second.

Going from `COc1ccc2c(c1)/C(=C\c1c(-c3ccccc3)nc3n1CCS3)C(=O)N2` to `C[C@@H]1OC(=O)C[C@H]2CC(=O)N(CCC3CN(C(=O)c4ccccc4)c4ccccc43)C[C@@H]21` (stereo partly drawn), the TGI rises from 17 µM to over 100 µM.

The molecules below were run on SF-295 CNS (assay: NCI tumour cell line growth inhibition, 48 h).

`COc1ccc(-n2cnc3c(N)nc(N)nc32)cc1` and `COc1ccc(N2C(=O)C3c4[nH]c5cccc(Cl)c5c4C4CCC(C(C)(C)C)CC4C3C2=O)cc1` (stereo not drawn) cannot be ordered by TGI: over 100 µM for the first, over 100 µM for the second.

Going from `COc1ccc2c(c1)/C(=C\c1c(-c3ccccc3)nc3n1CCS3)C(=O)N2` to `C[C@@H]1OC(=O)C[C@H]2CC(=O)N(CCC3CN(C(=O)c4ccccc4)c4ccccc43)C[C@@H]21` (stereo partly drawn), the TGI rises from 15.1 µM to over 100 µM.

With `O=c1cc(N2CCOCC2)[nH]c(=O)n1-c1cccc(Cl)c1` the TGI was over 100 µM.

Each molecule was assayed on SK-MEL-28 melanoma (assay: NCI tumour cell line growth inhibition, 48 h).

`COc1ccc(-n2cnc3c(N)nc(N)nc32)cc1` and `COc1ccc(N2C(=O)C3c4[nH]c5cccc(Cl)c5c4C4CCC(C(C)(C)C)CC4C3C2=O)cc1` (stereo not drawn) cannot be ordered by TGI: over 100 µM for the first, over 100 µM for the second.

Going from `COc1ccc2c(c1)/C(=C\c1c(-c3ccccc3)nc3n1CCS3)C(=O)N2` to `C[C@@H]1OC(=O)C[C@H]2CC(=O)N(CCC3CN(C(=O)c4ccccc4)c4ccccc43)C[C@@H]21` (stereo partly drawn), the TGI rises from 27.7 µM to over 100 µM.

`O=c1cc(N2CCOCC2)[nH]c(=O)n1-c1cccc(Cl)c1` showed a TGI of over 100 µM.

What follows are molecules tested on DU-145 prostate (assay: NCI tumour cell line growth inhibition, 48 h).

`COc1ccc(-n2cnc3c(N)nc(N)nc32)cc1` and `COc1ccc(N2C(=O)C3c4[nH]c5cccc(Cl)c5c4C4CCC(C(C)(C)C)CC4C3C2=O)cc1` (stereo not drawn) cannot be ordered by TGI: over 100 µM for the first, over 100 µM for the second.

First: COc1ccc2c(c1)/C(=C\c1c(-c3ccccc3)nc3n1CCS3)C(=O)N2
Second: O=c1cc(N2CCOCC2)[nH]c(=O)n1-c1cccc(Cl)c1
The TGI of the first is lower: 60 µM for the first, over 100 µM for the second.
